Earlier results on one substance are cited in US7030094B2, “Immunostimulant compositions comprising an aminoalkyl glucosaminide phosphate and QS-21” (priority 2002, dated 2006).

Where two headings read alike, the source gives them in different places. Where only a bound is given, the exact number is not on record here.

For the substance QS-21, in the data set with sheep red blood cells, the “concentration causing hemolysis of sheep red blood cells” value was not below 25000 ng/mL. The critical micellar concentration reads like this: (in phosphate buffered saline) ~0.02 % (w/v); (in water) “about 0.03 % (w/v)”.
